Assays:
pig weed = assay: greenhouse post-emergence herbicidal test, pig weed; format: in vivo, Amaranthus retroflexus
From the text: (§1) The seeds of the test plants were sown separately for each species. For the post-emergence treatment, the test plants were first grown to a height of 3 to 15 cm, depending on the plant habit, and only then treated with the active ingredients which had been suspended or emulsified in water. For this purpose, the test plants were either sown directly and grown in the same containers, or they were first grown separately as seedlings and transplanted into the test containers a few days prior to treatment. The rate of application for the post-emergence treatment was 1.0, 0.5, 0.25, 0.125 or 0.0625 kg/ha of a.s. (active substance). Depending on the species, the plants were kept at 10-25° C. or 20-35° C. The test period extended over 2 to 4 weeks. During this time, the plants were tended, and their response to the individual treatments was evaluated. Evaluation was carried out using a scale from 0 to 100. 100 means no emergence of the plants, or complete destruction of at least the aerial parts, and 0 means no damage, or normal course of growth. The plants used in the greenhouse experiments belonged to the following species: [table]

lambsquarters = assay: greenhouse post-emergence herbicidal test, lambsquarters; format: in vivo, Chenopodium album
From the text: as §1

green foxtail = assay: greenhouse post-emergence herbicidal test, green foxtail; format: in vivo, Setaria viridis
From the text: as §1

black bindweed = assay: greenhouse post-emergence herbicidal test, black bindweed; format: in vivo, Polygonum convolvulus
From the text: as §1

cleavers harrif = assay: greenhouse post-emergence herbicidal test, cleavers harrif; format: in vivo, Galium aparine
From the text: as §1

velvet leaf = assay: greenhouse post-emergence herbicidal test, velvet leaf; format: in vivo, Abutilon theophrasti; settings: application rate 0.5 kg/ha
From the text: as §1

wild oat = assay: greenhouse post-emergence herbicidal test, wild oat; format: in vivo, Avena fatua; settings: application rate 0.5 kg/ha
From the text: as §1

For CNC(=O)C(NC(=O)c1ccccc1C(F)(F)F)C(O)c1ccccc1 (racemic) [Compound 3.2], the “post-emergence action against pig weed” value (pig weed; application rate 1.00 kg/ha) was “very good”, the “post-emergence action against lambsquarters” value (lambsquarters; application rate 1.00 kg/ha) was “very good” and the “post-emergence action against green foxtail” value (green foxtail; application rate 1.00 kg/ha) was “very good”.

With CNC(=O)C(NC(=O)c1ccc(F)cc1C(F)(F)F)C(O)c1ccccc1[N+](=O)[O-] (racemic) [Compound 3.67] the “post-emergence action against pig weed” value (pig weed; application rate 1.00 kg/ha) was “very good”, the “post-emergence action against lambsquarters” value (lambsquarters; application rate 1.00 kg/ha) was “very good” and the “post-emergence action against green foxtail” value (green foxtail; application rate 1.00 kg/ha) was “very good”.

In the case of CNC(=O)C(NC(=O)c1ccc(F)cc1C(F)(F)F)C(OC(=O)N(C)C)c1cccc(N)c1 (racemic) [Compound 3.123], the “post-emergence action against pig weed” value (pig weed; application rate 1.00 kg/ha) is reported as “very good”, the “post-emergence action against lambsquarters” value (lambsquarters; application rate 1.00 kg/ha) is reported as “very good” and the “post-emergence action on black bindweed” value (black bindweed; application rate 1.00 kg/ha) is reported as “very good”.

For CNC(=O)C(NC(=O)c1ccc(F)cc1C(F)(F)F)C(OC(=O)N(C)C)c1cccc(NS(C)(=O)=O)c1 (racemic) [Compound 3.128], the “post-emergence action against pig weed” value (pig weed; application rate 1.00 kg/ha) was “very good”, the “post-emergence action against lambsquarters” value (lambsquarters; application rate 1.00 kg/ha) was “very good” and the “post-emergence action against green foxtail” value (green foxtail; application rate 1.00 kg/ha) was “very good”.

With CNC(=O)C(NC(=O)c1ccc(F)cc1C(F)(F)F)C(O[Si](C)(C)C(C)(C)C)c1ccccc1 (racemic) [Compound 3.154] the “post-emergence action against pig weed” value (pig weed; application rate 1.00 kg/ha) was “very good”, the “post-emergence action against lambsquarters” value (lambsquarters; application rate 1.00 kg/ha) was “very good” and the “post-emergence action against green foxtail” value (green foxtail; application rate 1.00 kg/ha) was “very good”. The “post-emergence control of cleavers harrif” value (cleavers harrif; application rate 1.0 kg/ha) was “very good” and the “post-emergence action on black bindweed” value (black bindweed; application rate 1.00 kg/ha) was “very good”.

With CNC(=O)C(NC(=O)c1cccc([N+](=O)[O-])c1C)C(O)c1ccccc1 (racemic) [Compound 5.20] the “post-emergence action on velvet leaf” value (velvet leaf) was “very good”.

In the case of CNC(=O)C(NC(=O)c1ccccc1OC(F)(F)F)C(O)c1ccccc1 (racemic) [Compound 5.36], the “post-emergence action on velvet leaf” value (velvet leaf) is reported as “very good”.

In the case of CNC(=O)C(NC(=O)c1ccccc1SC(F)F)C(O)c1ccccc1 (racemic) [Compound 5.37], the “post-emergence action on velvet leaf” value (velvet leaf) is reported as “controlled” and the “post-emergence control of wild oat” value (wild oat) is reported as “controlled”.

In the case of CNC(=O)[C@@H](NC(=O)c1ccc(F)cc1C(F)(F)F)[C@H](O)c1cccc(F)c1C [Compound 3.10], the “post-emergence action against pig weed” value (pig weed; application rate 1.00 kg/ha) is reported as “very good”, the “post-emergence action against lambsquarters” value (lambsquarters; application rate 1.00 kg/ha) is reported as “very good” and the “post-emergence action against green foxtail” value (green foxtail; application rate 1.00 kg/ha) is reported as “very good”.

In the case of CNC(=O)[C@@H](NC(=O)c1ccc(F)cc1C(F)(F)F)[C@H](O)c1cccc(Cl)c1C [Compound 3.11], the “post-emergence action against pig weed” value (pig weed; application rate 1.00 kg/ha) is reported as “very good”, the “post-emergence action against lambsquarters” value (lambsquarters; application rate 1.00 kg/ha) is reported as “very good” and the “post-emergence action against green foxtail” value (green foxtail; application rate 1.00 kg/ha) is reported as “very good”.

In the case of CNC(=O)C(NC(=O)c1ccc(F)cc1C(F)(F)F)C(OC(=O)N(C)C)c1ccccc1C (stereo not shown) [Compound 3.28], the “post-emergence action against pig weed” value (pig weed; application rate 1.00 kg/ha) is reported as “very good”, the “post-emergence action against lambsquarters” value (lambsquarters; application rate 1.00 kg/ha) is reported as “very good” and the “post-emergence action against green foxtail” value (green foxtail; application rate 1.00 kg/ha) is reported as “very good”.

CNC(=O)C(NC(=O)c1ccc(F)cc1C(F)(F)F)C(c1ccccc1)N(C=O)Cc1ccccc1 (stereo not shown) [Compound 3.43, N-[2-(N-Benzyl-N-formylamino)-1-methylcarbamoyl-2-phenylethyl]-4-fluoro-2-trifluoromethylbenzamide] showed a melting point of 212 °C.

For CNC(=O)C(NC(=O)c1ccc(F)cc1C(F)(F)F)C(O)c1ccccc1CO (stereo not shown) [Compound 3.61], the “post-emergence action against pig weed” value (pig weed; application rate 0.5 kg/ha) was “very good”, the “post-emergence action against lambsquarters” value (lambsquarters; application rate 0.5 kg/ha) was “very good” and the “post-emergence control of cleavers harrif” value (cleavers harrif; application rate 0.5 kg/ha) was “very good”. For the same molecule, the “post-emergence action on black bindweed” value (black bindweed; application rate 0.5 kg/ha) was “very good”.

For CNC(=O)C(NC(=O)c1ccc(F)cc1C(F)(F)F)C(O)c1ccccc1COC(C)=O (stereo not shown) [Compound 3.62], the “post-emergence action against pig weed” value (pig weed; application rate 0.5 kg/ha) was “very good”, the “post-emergence action against lambsquarters” value (lambsquarters; application rate 0.5 kg/ha) was “very good” and the “post-emergence action against green foxtail” value (green foxtail; application rate 0.5 kg/ha) was “very good”. For the same molecule, the “post-emergence control of cleavers harrif” value (cleavers harrif; application rate 0.5 kg/ha) was “very good”.

In the case of CNC(=O)C(NC(=O)c1ccc(F)cc1C(F)(F)F)C(O)c1ccccc1COS(C)(=O)=O (stereo not shown) [Compound 3.65], the “post-emergence action against pig weed” value (pig weed; application rate 0.5 kg/ha) is reported as “very good”, the “post-emergence action against lambsquarters” value (lambsquarters; application rate 0.5 kg/ha) is reported as “very good” and the “post-emergence action on black bindweed” value (black bindweed; application rate 0.5 kg/ha) is reported as “very good”.

For CNC(=O)C(NC(=O)c1ccc(F)cc1C(F)(F)F)C(O)c1ccccc1OCc1ccccc1 (stereo not shown) [Compound 3.66], the “post-emergence action against pig weed” value (pig weed; application rate 1.00 kg/ha) was “very good”, the “post-emergence action against lambsquarters” value (lambsquarters; application rate 1.00 kg/ha) was “very good” and the “post-emergence action against green foxtail” value (green foxtail; application rate 1.00 kg/ha) was “very good”.

With CNC(=O)C(NC(=O)c1ccc(F)cc1C(F)(F)F)C(OC(=O)COCCOCCOC)c1ccccc1COC(=O)COCCOCCOC (stereo not shown) [Compound 3.96] the “post-emergence action against pig weed” value (pig weed; application rate 0.5 kg/ha) was “very good”, the “post-emergence action against lambsquarters” value (lambsquarters; application rate 0.5 kg/ha) was “very good” and the “post-emergence control of cleavers harrif” value (cleavers harrif; application rate 0.5 kg/ha) was “very good”. The “post-emergence action on black bindweed” value (black bindweed; application rate 0.5 kg/ha) was “very good”.

In the case of CNC(=O)C(NC(=O)c1ccc(F)cc1C(F)(F)F)C(OC(=O)N(C)C)c1ccccc1COC(=O)N(C)C (stereo not shown) [Compound 3.131], the “post-emergence action against pig weed” value (pig weed; application rate 0.5 kg/ha) is reported as “very good”, the “post-emergence action against lambsquarters” value (lambsquarters; application rate 0.5 kg/ha) is reported as “very good” and the “post-emergence control of cleavers harrif” value (cleavers harrif; application rate 0.5 kg/ha) is reported as “very good”. The “post-emergence action on black bindweed” value (black bindweed; application rate 0.5 kg/ha) was “very good”.

For CNC(=O)[C@@H](NC(=O)c1ccc(F)cc1C(F)(F)F)[C@H](OC(=O)NS(=O)(=O)C(F)(F)F)c1cccc(F)c1C [Compound 3.137], the “post-emergence action against pig weed” value (pig weed; application rate 1.00 kg/ha) was “very good”, the “post-emergence action against lambsquarters” value (lambsquarters; application rate 1.00 kg/ha) was “very good” and the “post-emergence action on black bindweed” value (black bindweed; application rate 1.00 kg/ha) was “very good”.

For CC[Si](CC)(CC)OCc1ccccc1C(O[Si](CC)(CC)CC)C(NC(=O)c1ccc(F)cc1C(F)(F)F)C(=O)NC (stereo not shown) [Compound 3.152], the “post-emergence action against pig weed” value (pig weed; application rate 1.00 kg/ha) was “very good”, the “post-emergence action against lambsquarters” value (lambsquarters; application rate 1.00 kg/ha) was “very good” and the “post-emergence action against green foxtail” value (green foxtail; application rate 1.00 kg/ha) was “very good”. For the same molecule, the “post-emergence control of cleavers harrif” value (cleavers harrif; application rate 1.0 kg/ha) was “very good”.

With CNC(=O)[C@@H](NC(=O)c1ccc(F)cc1C(F)(F)F)[C@H](OC(=O)COCCOCCOC)c1ccc(F)c(F)c1F [Compound 4.24] the “post-emergence action against pig weed” value (pig weed; application rate 0.5 kg/ha) was “very good”, the “post-emergence action against lambsquarters” value (lambsquarters; application rate 0.5 kg/ha) was “very good” and the “post-emergence action against green foxtail” value (green foxtail; application rate 0.5 kg/ha) was “very good”. For the same molecule, the “post-emergence control of cleavers harrif” value (cleavers harrif; application rate 0.5 kg/ha) was “very good”.
